What all share (test): biochemical
What all share (parameters): DiscoveRx KINOMEscan active site-directed competition binding; percent of control kinase bound to immobilised ligand

In one assay the target is T1, CASK (Homo sapiens, UniProt O14936).
T1 sequence (O14936 1-926): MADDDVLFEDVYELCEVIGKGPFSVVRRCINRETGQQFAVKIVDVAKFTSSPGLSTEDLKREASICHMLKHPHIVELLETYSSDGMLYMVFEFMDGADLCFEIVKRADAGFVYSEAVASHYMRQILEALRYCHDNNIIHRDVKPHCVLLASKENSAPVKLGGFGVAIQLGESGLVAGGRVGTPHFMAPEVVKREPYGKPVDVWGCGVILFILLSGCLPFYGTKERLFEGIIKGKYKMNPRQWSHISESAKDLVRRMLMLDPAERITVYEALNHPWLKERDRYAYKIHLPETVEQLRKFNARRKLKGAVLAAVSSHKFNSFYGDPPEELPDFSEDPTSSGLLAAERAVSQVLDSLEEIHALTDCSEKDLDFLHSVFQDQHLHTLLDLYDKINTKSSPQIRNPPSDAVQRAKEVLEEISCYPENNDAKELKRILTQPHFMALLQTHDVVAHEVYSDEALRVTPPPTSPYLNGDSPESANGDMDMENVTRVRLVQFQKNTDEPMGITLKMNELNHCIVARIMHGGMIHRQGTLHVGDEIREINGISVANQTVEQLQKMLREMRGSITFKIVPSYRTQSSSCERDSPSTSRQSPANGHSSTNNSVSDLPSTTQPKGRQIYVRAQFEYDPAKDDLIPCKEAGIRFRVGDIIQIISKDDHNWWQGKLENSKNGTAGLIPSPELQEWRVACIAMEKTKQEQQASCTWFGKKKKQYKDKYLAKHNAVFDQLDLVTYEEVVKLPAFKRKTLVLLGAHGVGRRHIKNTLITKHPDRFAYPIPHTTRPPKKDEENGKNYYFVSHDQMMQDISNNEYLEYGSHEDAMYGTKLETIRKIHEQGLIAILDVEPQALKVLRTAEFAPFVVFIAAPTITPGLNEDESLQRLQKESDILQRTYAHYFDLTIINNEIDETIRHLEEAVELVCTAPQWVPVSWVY

The target in a further assay is T2, MLCK (Homo sapiens, UniProt Q32MK0).
T2 construct: gene MYLK3
T2 sequence (Q32MK0 1-819): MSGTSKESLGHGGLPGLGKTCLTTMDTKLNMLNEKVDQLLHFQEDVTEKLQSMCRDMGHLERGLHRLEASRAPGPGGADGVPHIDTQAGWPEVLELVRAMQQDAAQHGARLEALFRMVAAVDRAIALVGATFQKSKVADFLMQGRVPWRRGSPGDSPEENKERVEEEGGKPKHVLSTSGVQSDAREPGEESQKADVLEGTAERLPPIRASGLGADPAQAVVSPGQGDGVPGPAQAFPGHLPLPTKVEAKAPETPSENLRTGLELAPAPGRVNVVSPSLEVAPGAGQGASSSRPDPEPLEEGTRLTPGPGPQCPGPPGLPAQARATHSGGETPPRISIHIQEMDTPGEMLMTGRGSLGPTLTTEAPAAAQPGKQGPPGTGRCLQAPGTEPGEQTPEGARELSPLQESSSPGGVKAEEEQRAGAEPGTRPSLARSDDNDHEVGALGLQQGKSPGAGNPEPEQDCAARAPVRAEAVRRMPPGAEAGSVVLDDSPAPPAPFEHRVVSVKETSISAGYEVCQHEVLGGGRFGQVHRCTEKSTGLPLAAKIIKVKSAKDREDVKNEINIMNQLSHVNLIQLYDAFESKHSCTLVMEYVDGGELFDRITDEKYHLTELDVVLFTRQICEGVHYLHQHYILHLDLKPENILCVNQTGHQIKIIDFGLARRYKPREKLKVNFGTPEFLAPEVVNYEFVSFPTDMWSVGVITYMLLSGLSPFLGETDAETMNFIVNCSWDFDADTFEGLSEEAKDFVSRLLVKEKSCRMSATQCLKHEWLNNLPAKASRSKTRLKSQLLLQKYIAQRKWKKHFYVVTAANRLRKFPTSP

In a further assay the target is T3, SNRK (Homo sapiens, UniProt Q9NRH2).
T3 sequence (Q9NRH2 1-765): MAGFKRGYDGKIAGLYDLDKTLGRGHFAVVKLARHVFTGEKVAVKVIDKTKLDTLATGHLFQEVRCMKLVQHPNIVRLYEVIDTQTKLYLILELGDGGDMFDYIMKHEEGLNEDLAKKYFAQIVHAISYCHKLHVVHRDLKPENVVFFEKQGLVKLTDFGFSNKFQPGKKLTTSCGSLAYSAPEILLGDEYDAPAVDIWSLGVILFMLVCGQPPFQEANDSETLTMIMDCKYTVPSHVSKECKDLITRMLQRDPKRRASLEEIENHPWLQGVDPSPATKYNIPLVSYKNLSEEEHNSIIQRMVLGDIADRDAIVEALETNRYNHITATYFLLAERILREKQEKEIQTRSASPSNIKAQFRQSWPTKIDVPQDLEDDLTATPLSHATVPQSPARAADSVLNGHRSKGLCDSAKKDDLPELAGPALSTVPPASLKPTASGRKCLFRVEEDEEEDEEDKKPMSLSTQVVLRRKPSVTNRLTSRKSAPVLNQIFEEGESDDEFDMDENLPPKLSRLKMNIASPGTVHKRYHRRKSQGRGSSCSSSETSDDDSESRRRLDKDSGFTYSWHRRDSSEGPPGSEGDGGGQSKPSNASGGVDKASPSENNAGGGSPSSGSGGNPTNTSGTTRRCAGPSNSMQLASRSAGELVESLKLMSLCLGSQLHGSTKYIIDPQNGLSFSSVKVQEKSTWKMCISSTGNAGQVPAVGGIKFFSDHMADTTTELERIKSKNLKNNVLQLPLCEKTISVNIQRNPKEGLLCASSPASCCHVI

Where [1] appears, read: read-out: Niraparib (MK-4827) / %Ctrl @ 10000nM.
Setting [2] is: read-out: Olaparib / %Ctrl @ 10000nM.
The mark [3] stands for this setting: read-out: Rucaparib / %Ctrl @ 10000nM, binding competition, % of control.
Setting [4] is: read-out: Talazoparib (BMN 673) / %Ctrl @ 10000nM.

SMILES strings stand for the structures. Like-named read-outs stand apart in the source and are kept apart here.

As to `NC(=O)c1cccc2cn(-c3ccc([C@@H]4CCCNC4)cc3)nc12` [Niraparib], the percent of control binding at 10 µM on CASK (setting [1]) was 93%; at MLCK (setting [1]), 92%; on SNRK (setting [1]), 100%.
`O=C(c1cc(Cc2n[nH]c(=O)c3ccccc23)ccc1F)N1CCN(C(=O)C2CC2)CC1` [Olaparib]: the percent of control binding at 10 µM on CASK (setting [2]) worked out at 78%; on MLCK (setting [2]), 95%; on SNRK (setting [2]), 96%.
`CNCc1ccc(-c2[nH]c3cc(F)cc4c3c2CCNC4=O)cc1` [Rucaparib]: the results for the percent of control binding at 10 µM at CASK (setting [3]), on MLCK (setting [3]) and at SNRK (setting [3]) were 83%, 53% and 80%, respectively.
Consider `Cn1ncnc1[C@H]1c2n[nH]c(=O)c3cc(F)cc(c23)N[C@@H]1c1ccc(F)cc1` [Talazoparib], for which the percent of control binding at 10 µM at CASK (setting [4]) came out at 79%; at MLCK (setting [4]), 98%; at SNRK (setting [4]), 100%.

These data come from paper PMC7026418, “The kinase polypharmacology landscape of clinical PARP inhibitors” (Scientific Reports, 2020).
